Experimental data published in PubChem BioAssay (NCI).
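96-well plates; 48 h exposure; 5 concentrations. Endpoints by linear interpolation between flanking doses. Not reached: highest tested concentration assigned. The concentration for full growth arrest is given as TGI.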

Key:
Assay in all cases: NCI anticancer screen, dose series, 48 h
HCC-2998 colon = tested on: HCC-2998 colon
CCRF-CEM leukemia = tested on: CCRF-CEM leukemia
DU-145 prostate = tested on: DU-145 prostate
EKVX NSCLC = tested on: EKVX NSCLC
SF-295 CNS = tested on: SF-295 CNS
SK-MEL-5 melanoma = tested on: SK-MEL-5 melanoma
UACC-257 melanoma = tested on: UACC-257 melanoma
ACHN renal = tested on: ACHN renal
HCT-15 colon = tested on: HCT-15 colon
SN12C renal = tested on: SN12C renal
HS 578T breast = tested on: HS 578T breast
PC-3 prostate = tested on: PC-3 prostate
UACC-62 melanoma = tested on: UACC-62 melanoma
MDA-N = tested on: MDA-N
U251 CNS = tested on: U251 CNS
SK-MEL-2 melanoma = tested on: SK-MEL-2 melanoma
SW-620 colon = tested on: SW-620 colon
HL-60(TB) leukemia = tested on: HL-60(TB) leukemia
M14 melanoma = tested on: M14 melanoma
OVCAR-3 ovarian = tested on: OVCAR-3 ovarian
RPMI-8226 leukemia = tested on: RPMI-8226 leukemia
HT29 colon = tested on: HT29 colon
MOLT-4 leukemia = tested on: MOLT-4 leukemia
T-47D breast = tested on: T-47D breast
BT-549 breast = tested on: BT-549 breast
SR leukemia = tested on: SR leukemia
A549 NSCLC = tested on: A549 NSCLC
OVCAR-8 ovarian = tested on: OVCAR-8 ovarian
TK-10 renal = tested on: TK-10 renal
NCI-H23 lung = tested on: NCI-H23 lung
K-562 leukemia = tested on: K-562 leukemia
NCI-H226 lung = tested on: NCI-H226 lung
CAKI-1 renal = tested on: CAKI-1 renal
RXF 393 renal = tested on: RXF 393 renal
KM12 colon = tested on: KM12 colon
SNB-19 CNS = tested on: SNB-19 CNS
HCT-116 colon = tested on: HCT-116 colon
OVCAR-5 ovarian = tested on: OVCAR-5 ovarian
COLO 205 colon = tested on: COLO 205 colon
A498 renal = tested on: A498 renal
NCI-H460 lung = tested on: NCI-H460 lung
HOP-62 NSCLC = tested on: HOP-62 NSCLC
IGROV1 ovarian = tested on: IGROV1 ovarian
NCI-H522 lung = tested on: NCI-H522 lung
SF-539 CNS = tested on: SF-539 CNS
HOP-92 NSCLC = tested on: HOP-92 NSCLC
OVCAR-4 ovarian = tested on: OVCAR-4 ovarian
MDA-MB-435 = tested on: MDA-MB-435
SK-OV-3 ovarian = tested on: SK-OV-3 ovarian
SF-268 CNS = tested on: SF-268 CNS
MALME-3M melanoma = tested on: MALME-3M melanoma
SK-MEL-28 melanoma = tested on: SK-MEL-28 melanoma
SNB-75 CNS = tested on: SNB-75 CNS
786-0 renal = tested on: 786-0 renal
UO-31 renal = tested on: UO-31 renal
MCF7 breast = tested on: MCF7 breast
MDA-MB-231 breast = tested on: MDA-MB-231 breast
LOX IMVI melanoma = tested on: LOX IMVI melanoma
NCI/ADR-RES ovarian = tested on: NCI/ADR-RES ovarian

## Cc1cn2cc(-c3cccs3)nc2s1
HCC-2998 colon
  TGI: > 100 µM
CCRF-CEM leukemia
  TGI: > 100 µM
DU-145 prostate
  TGI: > 100 µM
EKVX NSCLC
  TGI: > 100 µM
SF-295 CNS
  TGI: > 100 µM
SK-MEL-5 melanoma
  TGI: > 100 µM
UACC-257 melanoma
  TGI: > 100 µM
ACHN renal
  TGI: > 100 µM
HCT-15 colon
  TGI: > 100 µM
SN12C renal
  TGI: > 100 µM
HS 578T breast
  TGI: > 100 µM
PC-3 prostate
  TGI: > 100 µM
UACC-62 melanoma
  TGI: > 100 µM
MDA-N
  TGI: > 100 µM
U251 CNS
  TGI: > 100 µM
SK-MEL-2 melanoma
  TGI: > 100 µM
SW-620 colon
  TGI: > 100 µM
HL-60(TB) leukemia
  TGI: > 100 µM
M14 melanoma
  TGI: > 100 µM
OVCAR-3 ovarian
  TGI: > 100 µM
RPMI-8226 leukemia
  TGI: > 100 µM
HT29 colon
  TGI: > 90.1 µM
MOLT-4 leukemia
  TGI: > 100 µM
T-47D breast
  TGI: > 100 µM
BT-549 breast
  TGI: > 100 µM
SR leukemia
  TGI: > 100 µM
A549 NSCLC
  TGI: > 100 µM
OVCAR-8 ovarian
  TGI: > 100 µM
TK-10 renal
  TGI: > 100 µM
NCI-H23 lung
  TGI: > 100 µM
K-562 leukemia
  TGI: > 100 µM
NCI-H226 lung
  TGI: > 100 µM
CAKI-1 renal
  TGI: > 100 µM
RXF 393 renal
  TGI: > 100 µM
KM12 colon
  TGI: > 100 µM
SNB-19 CNS
  TGI: > 100 µM
HCT-116 colon
  TGI: > 100 µM
OVCAR-5 ovarian
  TGI: > 100 µM
COLO 205 colon
  TGI: > 100 µM
A498 renal
  TGI: > 100 µM
NCI-H460 lung
  TGI: > 100 µM
HOP-62 NSCLC
  TGI: > 100 µM
IGROV1 ovarian
  TGI: > 100 µM
NCI-H522 lung
  TGI: > 100 µM
SF-539 CNS
  TGI: > 100 µM
HOP-92 NSCLC
  TGI: > 100 µM
OVCAR-4 ovarian
  TGI: > 100 µM
MDA-MB-435
  TGI: > 100 µM
SK-OV-3 ovarian
  TGI: > 100 µM
SF-268 CNS
  TGI: > 100 µM
MALME-3M melanoma
  TGI: > 100 µM
SK-MEL-28 melanoma
  TGI: > 100 µM
SNB-75 CNS
  TGI: > 100 µM
786-0 renal
  TGI: > 100 µM
UO-31 renal
  TGI: > 100 µM
MCF7 breast
  TGI: > 100 µM
MDA-MB-231 breast
  TGI: > 100 µM
LOX IMVI melanoma
  TGI: > 100 µM

## CSC(=S)CC(O)[C@@H]1CC2c3ccccc3C1c1ccccc12 (some centres undefined)
HCC-2998 colon
  TGI: 28.2 µM
CCRF-CEM leukemia
  TGI: 10.6 µM
DU-145 prostate
  TGI: 30.8 µM
SF-295 CNS
  TGI: 34.4 µM
SK-MEL-5 melanoma
  TGI: 30.5 µM
ACHN renal
  TGI: 29.5 µM
HCT-15 colon
  TGI: 25.6 µM
SN12C renal
  TGI: 45.2 µM
HS 578T breast
  TGI: 80.2 µM
PC-3 prostate
  TGI: 48.6 µM
UACC-62 melanoma
  TGI: 25.4 µM
MDA-N
  TGI: 28.3 µM
U251 CNS
  TGI: 13 µM
SW-620 colon
  TGI: > 100 µM
HL-60(TB) leukemia
  TGI: 7.96 µM
M14 melanoma
  TGI: 27 µM
OVCAR-3 ovarian
  TGI: 22.2 µM
RPMI-8226 leukemia
  TGI: 20.7 µM
HT29 colon
  TGI: 15 µM
MOLT-4 leukemia
  TGI: 8.24 µM
T-47D breast
  TGI: 37.7 µM
BT-549 breast
  TGI: 34.2 µM
NCI/ADR-RES ovarian
  TGI: 54.7 µM
A549 NSCLC
  TGI: 34.4 µM
OVCAR-8 ovarian
  TGI: 39.2 µM
TK-10 renal
  TGI: 30.7 µM
NCI-H23 lung
  TGI: 22.2 µM
K-562 leukemia
  TGI: 30.4 µM
NCI-H226 lung
  TGI: 79.1 µM
RXF 393 renal
  TGI: 7.54 µM
KM12 colon
  TGI: 25.5 µM
SNB-19 CNS
  TGI: 26.7 µM
HCT-116 colon
  TGI: 20.9 µM
OVCAR-5 ovarian
  TGI: 33.4 µM
COLO 205 colon
  TGI: 36.4 µM
A498 renal
  TGI: 37.3 µM
NCI-H460 lung
  TGI: 40.8 µM
HOP-62 NSCLC
  TGI: 38.2 µM
IGROV1 ovarian
  TGI: 33.1 µM
NCI-H522 lung
  TGI: 10.9 µM
SF-539 CNS
  TGI: 37.8 µM
HOP-92 NSCLC
  TGI: 38.8 µM
OVCAR-4 ovarian
  TGI: 27.5 µM
MDA-MB-435
  TGI: 26 µM
SK-OV-3 ovarian
  TGI: 28.7 µM
SF-268 CNS
  TGI: 45.4 µM
MALME-3M melanoma
  TGI: 39.1 µM
SK-MEL-28 melanoma
  TGI: 48.5 µM
786-0 renal
  TGI: 41.3 µM
UO-31 renal
  TGI: 25.6 µM
MCF7 breast
  TGI: 62.1 µM
MDA-MB-231 breast
  TGI: 54.3 µM
LOX IMVI melanoma
  TGI: 54.6 µM

## COc1cc2nc3n(c2cc1OC)C(O)c1c(Cl)nc(SC)nc1S3 (centres undefined)
HCC-2998 colon
  TGI: 20.2 µM
CCRF-CEM leukemia
  TGI: 3.91 µM
DU-145 prostate
  TGI: 24.1 µM
EKVX NSCLC
  TGI: 40.6 µM
SF-295 CNS
  TGI: > 94.5 µM
SK-MEL-5 melanoma
  TGI: 8.94 µM
UACC-257 melanoma
  TGI: 52.5 µM
ACHN renal
  TGI: 42.2 µM
HCT-15 colon
  TGI: 12.3 µM
SN12C renal
  TGI: 21 µM
HS 578T breast
  TGI: > 100 µM
PC-3 prostate
  TGI: > 49.8 µM
UACC-62 melanoma
  TGI: 25.2 µM
MDA-N
  TGI: 24 µM
U251 CNS
  TGI: 26.3 µM
SK-MEL-2 melanoma
  TGI: > 27.2 µM
SW-620 colon
  TGI: 22.8 µM
M14 melanoma
  TGI: 21.8 µM
OVCAR-3 ovarian
  TGI: 13.3 µM
RPMI-8226 leukemia
  TGI: > 37 µM
HT29 colon
  TGI: > 100 µM
MOLT-4 leukemia
  TGI: > 48.9 µM
T-47D breast
  TGI: > 59 µM
BT-549 breast
  TGI: 9.37 µM
NCI/ADR-RES ovarian
  TGI: 18.7 µM
SR leukemia
  TGI: > 100 µM
A549 NSCLC
  TGI: 48 µM
OVCAR-8 ovarian
  TGI: 7.06 µM
TK-10 renal
  TGI: > 74 µM
NCI-H23 lung
  TGI: 18.3 µM
K-562 leukemia
  TGI: > 100 µM
NCI-H226 lung
  TGI: 28 µM
CAKI-1 renal
  TGI: > 45.4 µM
RXF 393 renal
  TGI: 14.8 µM
KM12 colon
  TGI: > 100 µM
SNB-19 CNS
  TGI: > 37.7 µM
HCT-116 colon
  TGI: 10.3 µM
OVCAR-5 ovarian
  TGI: > 95.1 µM
COLO 205 colon
  TGI: 22.9 µM
A498 renal
  TGI: 34.9 µM
NCI-H460 lung
  TGI: 19.6 µM
HOP-62 NSCLC
  TGI: 26.1 µM
IGROV1 ovarian
  TGI: 13 µM
NCI-H522 lung
  TGI: 4.36 µM
SF-539 CNS
  TGI: 5.22 µM
HOP-92 NSCLC
  TGI: 68.3 µM
OVCAR-4 ovarian
  TGI: > 39 µM
MDA-MB-435
  TGI: > 64.3 µM
SK-OV-3 ovarian
  TGI: 30.8 µM
SF-268 CNS
  TGI: > 100 µM
MALME-3M melanoma
  TGI: 8.8 µM
SK-MEL-28 melanoma
  TGI: 23.2 µM
SNB-75 CNS
  TGI: > 68 µM
786-0 renal
  TGI: 7.85 µM
UO-31 renal
  TGI: 13.2 µM
MCF7 breast
  TGI: 15 µM
MDA-MB-231 breast
  TGI: > 81 µM
LOX IMVI melanoma
  TGI: 5.07 µM
